In patent US11866405B2, “Substituted indazoles as IRAK4 inhibitors” (AstraZeneca AB, priority 2020, dated 2024) one finds IC50 data, which are given here for 1 compound.

Where two headings read alike, the source gives them in different places.

Assay [1] addresses human recombinant IRAK4 protein (Homo sapiens (Human), UniProt Q9NWZ3). The assay can be described thus: IRAK4 enzyme assay (mass spectrometry readout). In kind it is biochemical. The following applies: 3 mM ATP, 0.2 nM enzyme; geometric mean of at least n=2, * single experiment. The gist of the method: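 0.2 nM IRAK4 preincubated 15 min at room temperature with compound (10-point half-log series, top 1 μM or 10 μM) in pH 7.4 Tris buffer with 3 mM ATP; 10 μM peptide substrate added, 2 h at room temperature, formic acid stop. Phospho/unphospho peptide ratio by LC-MS/MS; potency from curve fit, geometric mean of n≥2 or single run.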

The subject of assay [2] is IL-1β stimulated IL-8 release in hTHP1 cells. As to the kind of experiment: IL-1β-induced IL-8 release in human THP-1 monocyte cell line. The following applies: Homo sapiens, THP-1, 18 h, THP-1 cells, IL-1β 1.8 ng/mL, geometric mean of at least n=2, * n = 1, read-out: hTHP1, IL1β stim, IL8 release red. IC50. In kind it is cell-based.
Assay [3] concerns human PBMCs stimulated with IL-1β. As to the kind of experiment: IL-1β-induced cytokine release in human PBMCs. Particulars: PBMC, 1 ng/mL IL-1β, 20 h. In kind it is cell-based. The source says:
In Vitro Effect of IRAK4 Inhibitors on LPS- and IL-1β-Induced Cytokine Release in Human PBMCs
To evaluate the effect and potency of IRAK4 inhibitors on blocking disease-relevant pathways in human primary immune cells, we stimulated human PBMCs (peripheral blood mononuclear cells) with LPS (TLR4 agonist) or IL-1β (IL-1R ligand) and measured the release of the proinflammatory cytokines IL-6 and TNF-α. Briefly, PBMCs were isolated from human blood, donated from healthy individuals, using LymphoPrep density gradient and plated at a cell density of 200 000 cells/well (for LPS assay) or 300 000 cells/well (for IL-1β assay) in 96-well culture plates. Cells were incubated for 1 h with serial dilutions of IRAK4 inhibitor or vehicle (DMSO) prior to stimulation of cells with 0.11 ng/mL LPS (derived from E. coli) or 1 ng/mL recombinant human IL-1β. After 4 h of LPS stimulation or 20 h of […] stimulation, the supernatant was collected and the levels of the proinflammatory cytokines TNF-α, IL-8 and IL-6 were measured by Mesoscale Discovery (MSD) multiplex assay. Dose-response curves were plotted and IC50 values were calculated with 4-parameter curve fit using GraphPad Prism 8 (see Table 3).

Broadly, the IC50 is the concentration that gives 50% inhibition.

Sequence of human recombinant IRAK4 protein (Q9NWZ3 whole entry): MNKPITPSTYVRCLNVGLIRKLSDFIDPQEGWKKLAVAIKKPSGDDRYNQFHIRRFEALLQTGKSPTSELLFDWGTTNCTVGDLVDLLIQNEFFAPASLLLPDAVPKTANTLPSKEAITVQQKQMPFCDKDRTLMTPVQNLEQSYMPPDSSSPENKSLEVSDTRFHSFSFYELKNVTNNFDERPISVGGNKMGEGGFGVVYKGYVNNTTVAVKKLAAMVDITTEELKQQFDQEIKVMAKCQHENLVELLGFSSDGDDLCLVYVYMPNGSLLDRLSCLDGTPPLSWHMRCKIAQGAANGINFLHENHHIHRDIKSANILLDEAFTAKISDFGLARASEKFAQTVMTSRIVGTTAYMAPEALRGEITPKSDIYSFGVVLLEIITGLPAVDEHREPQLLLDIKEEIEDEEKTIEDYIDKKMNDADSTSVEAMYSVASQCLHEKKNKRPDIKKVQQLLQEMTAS

`COc1cc2nn([C@@H]3CC[C@@H](O)C[C@H]3C)cc2cc1C(=O)Nc1cnc2cccnn12` [Example 89, 2-((1R,2R,4R)-4-hydroxy-2-methylcyclohexyl)-N-(imidazo[1,2-b]pyridazin-3-yl)-6-methoxy-2H-indazole-5-carboxamide]: the IC50 in assay [1] came out at 1.1 nM; in assay [2], 31 nM; in assay [3] (read-out: IC50, IL-6 read-out, IL-1β stimulation), 22 nM; in assay [3] (read-out: IC50, IL-8 read-out, IL-1β stimulation), 30 nM.
